From the supplement of paper PMC11061612

Key:
[1] = compound: C1CC(C1)(C(=O)[O-])C(=O)[O-].N.N.[Pt+2] [Carboplatin]; settings: max 10 µM
Method in brief: (§1)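 Cancer cell lines were plated in 1536-well plates in 7.5 μl of DMEM/F12 or RPMI with 10% FBS and kept 24 hours at 37°C and 5% CO2 before 72 hours of dosing, with final DMSO typically 0.2%. CellTiter-Glo 2.0 luminescence measured viability, scaled between blank-well and DMSO-well means. Dose responses were fitted to a two-parameter logistic curve with a non-linear mixed effects model. This fit gives the single-agent IC50.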

[2] = compound: C1CN(CCC1(C(=O)N[C@@H](CCO)C2=CC=C(C=C2)Cl)N)C3=NC=NC4=C3C=CN4 [AZD5363]; settings: max 10 µM
Method in brief: as §1

[3] = compound: C=CCn1c(=O)c2cnc(Nc3ccc(N4CCN(C)CC4)cc3)nc2n1-c1cccc(C(C)(C)O)n1 [AZD1775]; settings: max 3 µM
Method in brief: as §1

[4] = compound: CC(=O)Nc1cccc(-n2c(=O)n(C3CC3)c(=O)c3c(Nc4ccc(I)cc4F)n(C)c(=O)c(C)c32)c1 [Trametinib]; settings: max 1 µM
Method in brief: as §1

[5] = compound: CC(=O)O[C@H]1C(=O)[C@@]2(C)[C@H]([C@H](OC(=O)c3ccccc3)[C@]3(O)C[C@H](OC(=O)[C@H](O)[C@@H](NC(=O)c4ccccc4)c4ccccc4)C(C)=C1C3(C)C)[C@]1(OC(C)=O)CO[C@@H]1C[C@@H]2O [Paclitaxel]; settings: max 3 µM
Method in brief: as §1

[6] = compound: CC(=O)c1c(C)c2cnc(Nc3ccc(N4CCNCC4)cn3)nc2n(C2CCCC2)c1=O [Palbociclib]; settings: max 10 µM
Method in brief: as §1

[7] = compound: CC(C)n1c(=O)n(C)c2cnc3cc(F)c(-c4ccc(OCCCN5CCCCC5)nc4)cc3c21 [AZD1390]; settings: max 0.3 µM
Method in brief: as §1

[8] = compound: CC1(C)CCC(CN2CCN(c3ccc(C(=O)NS(=O)(=O)c4ccc(NCC5CCOCC5)c([N+](=O)[O-])c4)c(Oc4cnc5[nH]ccc5c4)c3)CC2)=C(c2ccc(Cl)cc2)C1 [Venetoclax]; settings: max 1 µM
Method in brief: as §1

[9] = compound: CC1=C(C(=CC=C1)Cl)NC(=O)C2=CN=C(S2)NC3=CC(=NC(=N3)C)N4CCN(CC4)CCO [Dasatinib]; settings: max 2 µM
Method in brief: as §1

[10] = compound: CC1=CN2[C@@H](C1)C=NC3=CC(=C(C=C3C2=O)OC)OCCCCCOC4=C(C=C5C(=C4)N=C[C@@H]6CC(=CN6C5=O)C)OC [SG3199]; settings: max 0.001 µM
Method in brief: as §1

[11] = compound: CCN(CCO)CCCOc1ccc2c(Nc3cc(CC(=O)Nc4cccc(F)c4)[nH]n3)ncnc2c1 [AZD2811]; settings: max 1 µM
Method in brief: as §1

[12] = compound: CCc1c2c(nc3ccc(O)cc13)-c1cc3c(c(=O)n1C2)COC(=O)[C@]3(O)CC [SN-38]; settings: max 0.3 µM
Method in brief: as §1

[13] = compound: CN(C)CCCOc1ccc(-c2ccc3ncc4c(c3c2)n(C2CCOCC2)c(=O)n4C)cn1 [AZD0156]; settings: max 3 µM
Method in brief: as §1

[14] = compound: CN(CC[C@H](CSC1=CC=CC=C1)NC2=C(C=C(C=C2)S(=O)(=O)NC(=O)C3=CC=C(C=C3)N4CCC(CC4)[C@H](C5=CC=CC=C5C6=CC=C(C=C6)Cl)O)S(=O)(=O)C(F)(F)F)CCO [AZD4320]; settings: max 1 µM
Method in brief: as §1

[15] = compound: COc1cc(Nc2ncc3c(n2)-c2ccc(Cl)cc2C(c2c(F)cccc2OC)=NC3)ccc1C(=O)O [Alisertib]; settings: max 10 µM
Method in brief: as §1

[16] = compound: COc1cc([C@@H]2c3cc4c(cc3[C@@H](O[C@@H]3O[C@@H]5CO[C@@H](C)O[C@H]5[C@H](O)[C@H]3O)[C@H]3COC(=O)[C@H]23)OCO4)cc(OC)c1O [Etoposide]; settings: max 10 µM
Method in brief: as §1

[17] = compound: COc1cc2ncnc(Nc3ccc(F)c(Cl)c3)c2cc1OCCCN1CCOCC1 [Gefitinib]; settings: max 10 µM
Method in brief: as §1

[18] = compound: COc1cccc(OCCCN)c1-c1cc(Nc2cnc(C#N)cn2)n[nH]1 [Prexasertib]; settings: max 1 µM
Method in brief: as §1

[19] = compound: COc1cccc2c1C(=O)c1c(O)c3c(c(O)c1C2=O)C[C@@](O)(C(=O)CO)C[C@@H]3O[C@H]1C[C@H](N)[C@H](O)[C@H](C)O1 [Doxorubicin]; settings: max 1 µM
Method in brief: as §1

[20] = compound: COc1nnc2ccc(N3CCC(c4ccc(OCCN5CCN(C)C(=O)[C@H]5C)cc4)CC3)nn12 [AZD5153]; settings: max 1 µM
Method in brief: as §1

[21] = compound: CS(=O)(=O)CCNCc1ccc(-c2ccc3ncnc(Nc4ccc(OCc5cccc(F)c5)c(Cl)c4)c3c2)o1 [Lapatinib]; settings: max 10 µM
Method in brief: as §1

[22] = compound: C[C@@H](Nc1cc(F)cc(F)c1)c1cc(C(=O)N(C)C)cc2c(=O)cc(N3CCOCC3)oc12 [AZD8186]; settings: max 10 µM
Method in brief: as §1

[23] = compound: C[C@@H](Oc1cc(-c2cnn(C3CCNCC3)c2)cnc1N)c1c(Cl)ccc(F)c1Cl [Crizotinib]; settings: max 10 µM
Method in brief: as §1

[24] = compound: C[C@@H](c1ccc2nccn2c1)n1nnc2ncc(-c3cnn(C)c3)nc21 [Savolitinib]; settings: max 1 µM
Method in brief: as §1

[25] = compound: C[C@@H]1COCCN1C2=NC(=NC(=C2)C3(CC3)[S@](=N)(=O)C)C4=C5C=CNC5=NC=C4 [AZD6738]; settings: max 10 µM
Method in brief: as §1

[26] = compound: Cc1c2c(nn1C)CSCc1cc(n(C)n1)CSc1cc(c3ccccc3c1)OCCCc1c(C(=O)O)n(C)c3c-2c(Cl)ccc13 [AZD5991]; settings: max 1 µM
Method in brief: as §1

[27] = compound: Cc1cc2ncnn2cc1Nc1ncc2c(n1)n(C1CCOCC1)c(=O)n2C [AZD7648]; settings: max 10 µM
Method in brief: as §1

[28] = compound: Cc1nc(-c2cn3c(n2)-c2ccc(-c4cnn(C(C)(C)C(N)=O)c4)cc2OCC3)n(C(C)C)n1 [Taselisib]; settings: max 10 µM
Method in brief: as §1

[29] = compound: Cn1cnc2c(F)c(Nc3ccc(Br)cc3Cl)c(C(=O)NOCCO)cc21 [Selumetinib]; settings: max 10 µM
Method in brief: as §1

[30] = compound: N#Cc1cnc(Nc2cc(NC[C@H]3CNCCO3)c(C(F)(F)F)cn2)cn1 [SRA737]; settings: max 10 µM
Method in brief: as §1

[31] = compound: NC1(c2ccc(-c3nc4ccn5c(=O)[nH]nc5c4cc3-c3ccccc3)cc2)CCC1 [MK-2206]; settings: max 10 µM
Method in brief: as §1

[32] = compound: Nc1ccn([C@@H]2O[C@H](CO)[C@@H](O)C2(F)F)c(=O)n1 [Gemcitabine]; settings: max 0.3 µM
Method in brief: as §1

[33] = compound: O=C(Nc1ccc2[nH]nc(-c3ccncc3)c2c1)[C@@H]1CCN(CC(=O)N2CCN(c3ccc(-c4ncccn4)cc3)CC2)C1; settings: max 5 µM
Method in brief: as §1

[34] = compound: O=C(c1cc(Cc2n[nH]c(=O)c3ccccc23)ccc1F)N1CCN(C(=O)C2CC2)CC1 [Olaparib]; settings: max 10 µM
Method in brief: as §1

[35] = compound: O=c1[nH]cc(F)c(=O)[nH]1 [5-Fluorouracil]; settings: max 20 µM
Method in brief: as §1

Row | Cell Line | IC50, cell viability 72 h [1] [µM] | IC50, cell viability 72 h [2] [µM] | IC50, cell viability 72 h [3] [µM] | IC50, cell viability 72 h [4] [µM] | IC50, cell viability 72 h [5] [µM] | IC50, cell viability 72 h [6] [µM] | IC50, cell viability 72 h [7] [µM] | IC50, cell viability 72 h [8] [µM] | IC50, cell viability 72 h [9] [µM] | IC50, cell viability 72 h [10] [µM] | IC50, cell viability 72 h [11] [µM] | IC50, cell viability 72 h [12] [µM] | IC50, cell viability 72 h [13] [µM] | IC50, cell viability 72 h [14] [µM] | IC50, cell viability 72 h [15] [µM] | IC50, cell viability 72 h [16] [µM] | IC50, cell viability 72 h [17] [µM] | IC50, cell viability 72 h [18] [µM] | IC50, cell viability 72 h [19] [µM] | IC50, cell viability 72 h [20] [µM] | IC50, cell viability 72 h [21] [µM] | IC50, cell viability 72 h [22] [µM] | IC50, cell viability 72 h [23] [µM] | IC50, cell viability 72 h [24] [µM] | IC50, cell viability 72 h [25] [µM] | IC50, cell viability 72 h [26] [µM] | IC50, cell viability 72 h [27] [µM] | IC50, cell viability 72 h [28] [µM] | IC50, cell viability 72 h [29] [µM] | IC50, cell viability 72 h [30] [µM] | IC50, cell viability 72 h [31] [µM] | IC50, cell viability 72 h [32] [µM] | IC50, cell viability 72 h [33] [µM] | IC50, cell viability 72 h [34] [µM] | IC50, cell viability 72 h [35] [µM]
1 | SK-OV-3 (Ovarian Carcinoma) | > 10 | > 10 | 2.45 | > 1 | 0.732 | > 10 | > 0.3 | > 1 | > 2 | > 0.001 | > 1 | > 0.3 | > 3 | > 1 | > 10 | > 10 | > 10 | 0.0355 | > 1 | > 1 | > 10 | > 10 | > 10 | > 1 | > 10 | > 1 | > 10 | 2.68 | > 10 | > 10 | > 10 | > 0.3 | > 5 | > 10 | > 20
2 | SU-DHL-6 (B-Cell Non-Hodgkin's Lymphoma) | > 10 | 0.301 | 0.676 | > 1 | 0.00404 | 3.57 | > 0.3 | 0.244 | 0.0178 | > 0.001 | > 1 | 0.00804 | 2.97 | 0.107 | 1.09 | 1.26 | > 10 | > 1 | 0.181 | 0.0489 | 4.98 | 0.228 | 2.84 | > 1 | > 10 | 0.0326 | > 10 | 0.0144 | > 10 | > 10 | 0.569 | 0.0364 | > 5 | > 10 | > 20
